From US10970594B2, “Magnetic resonance maps for analyzing tissue” (Tel HaShomer Medical Research Infrastructure and Services …, priority 2011, dated 2021)

Key:
recurrent GBM = test: Delayed enhancement subtraction maps and T1-weighted MRI of patients treated with bevacizumab (Example 5); format: in vivo, human
Description: In the present example, the delayed enhancement subtraction maps of the present embodiments are used for analyzing brain MRI of subjects treated with bevacizumab.
Four patients were subjected to bevacizumab (Avastin®) treatment. High resolution T1-weighted MR images were acquired and subtraction maps were calculated from these images. Acquisition sessions were held before treatment and several times after treatment. The predetermined time interval between two subtracted images was 75 minutes. Histological analysis was performed with tissue samples obtained from the on of these patients which underwent surgery after treatment with Avastin.

[1] = common adverse effects hypertension and proteinuria; thromboembolic disease and hemorrhage infrequent; cited from earlier work
GBM lesion = test: Vessel function maps of GBM patients given Bevacizumab IV after failing first line chemoradiation (Example 2, preliminary results); format: in vivo, human; details: for change of the lesion in the map: patient #1, GBM lesion of FIG. 8
Description: Two GBM patients who failed first line chemoradiation were given Bevacizumab as an IV infusion, 10 mg/kg body weight every 2 weeks (standard Bevacizumab regimen for GBM patients).
The patients were recruited before Bevacizumab treatment was initiated. They underwent the first MRI exam prior to treatment. Second and third MRI exams are performed 1 week and 1 month after the administration of the first Bevacizumab dose. Two more MRI exams are performed at 3 and 5 months post initiation of treatment.
Vessel function maps were calculated at 15 and 75 min after contrast injection. Examples of two patients with 3 GBM lesions with different presentations of response to Avastin, are shown below. The response pattern to Avastin and the physiological meaning of the observed changes in the maps, are being studied.

[2] = patient of FIGS. 30A-F, at 3 months
[3] = patient of FIGS. 30A-F, first month after initiation of treatment
[4] = patient of FIGS. 31A-F, first 3 months
[5] = patient of FIGS. 32A-H, at 1 month
[6] = patient of FIGS. 32A-H, at 3 months, after re-irradiation
[7] = patient of FIGS. 32A-H, first week
[8] = patient #2, FIG. 12, 1 week after the first treatment

bevacizumab
enhancing lesion decreased by, of its original volume (recurrent GBM; [2]): about 57%
red volume decreased by (recurrent GBM; [2]): about 40%
blue volume increased by (recurrent GBM; patient of FIGS. 30A-F, at 3 months, suggesting progression): about 25%
blue volume (recurrent GBM; [3]): stable
enhancing lesion volume (on T1-Gd) decreased by (recurrent GBM; [3]): about 50%
red volume decreased by (recurrent GBM; [3]): about 50%
blue volume (recurrent GBM; patient of FIGS. 31A-F, 5 months MRI, after re-irradiation during bevacizumab treatment): decreased significantly
blue volume (recurrent GBM; [4]): increased significantly
edema (recurrent GBM; [4]): decreased
lesion volume on T1-Gd (recurrent GBM; [4]): stable
blue volume increased by (recurrent GBM; [5]): 200%
enhancing volume increased by (recurrent GBM; [5]): 70%
red volume decreased by (recurrent GBM; [5]): about 50%
blue volume increased by (recurrent GBM; [6]): over 500%
enhancing lesion volume increased by (recurrent GBM; [6]): over 500%
red volume increased by (recurrent GBM; [6]): over 500%
blue volume decreased by (recurrent GBM; [7]): 20%
enhancing lesion volume (on T1-Gd) (recurrent GBM; [7]): stable
red volume increased by (recurrent GBM; [7]): 30%
tolerability [1]: generally well tolerated
change of the lesion in the map (GBM lesion; 1 month follow-up): minor changes
change of the lesion in the map (GBM lesion; first week of treatment): became more prominently blue
blue component (GBM lesion; patient #1, recurrent GBM lesion of FIG. 10, 1 month later): increase
blue component (GBM lesion; patient #1, recurrent GBM lesion of FIG. 10, first week post treatment): decrease
blue component (GBM lesion; [8]): has not decreased
edema (GBM lesion; [8]): somewhat relieved
pressure on the brain (GBM lesion; [8]): relieved
red component of the lesion (GBM lesion; [8]): significantly decreased
blue component (GBM lesion; patient #2, FIG. 12, 3-months follow-up, in parallel to clinical deterioration, no sign of progression on conventional MRI): continued to increase
